Patent US3962445A, “Anti-allergenic carbostyril derivatives” (Beecham Group Limited, priority 1973, dated 1976)

System: PCA response
Test: rat Passive Cutaneous Anaphylaxis Test (PCA test)
Type: in vivo, rat (male Wistar)
Details: subcutaneous, as sodium salt
Procedure: Some of the 4-hydroxycarbostyrils prepared in the preceding examples were tested in the rat Passive Cutaneous Anaphylaxis Test (PCA test), described below. They were administered as their sodium salts either in pH 7.2 phosphate buffer (for soluble salts) or as a suspension in 1% methyl cellulose (for insoluble salts).
Male Wistar rats of 250-300g, were injected intraperitoneally with 0.5 ml. of Bordatella pertussis vaccine (containing 4 × 10^10 dead organism per ml) and subcutaneously with 0.5 ml. of an emulsion of 100 mg. of ovalbumin in 2 ml of saline and 3 ml. of incomplete Freunds' adjuvant. Rats were bled by cardiac puncture on day 18, the blood was pooled and separated and serum stored at -20° and thawed only once before use.
0.1 ml of each of six twofold serial dilutions of the serum in 0.9% saline were injected intradermally into separate sites on the shaved dorsal surface of 250-350 g. Male Wistar rats. 72 hours later the animals were challenged by i v injection of 0.3 ml. of 1% ovalbumin mixed with 0.1 ml of a 5% solution of pontamine sky blue dye both in isotonic saline buffered with pH. 7.2 Sorenson buffer (P P S ) The rats were killed after 20 minutes and the diameter of the blue wheals at the antibody injection sites were measured. The starting dilution of the serum was adjusted so that there was no response after challenge, at the site of injection of the highest dilution and a maximum response at the two or three lowest dilutions. Typically, six twofold serial dilutions of the serum 1/4 to […] were used.
Amounts of the compounds were administered to rats by subcutaneous injection, into the nucal region, of a solution of the compound in P.B.S. or as a suspension in 1% methyl cellulose, each amount to a test group of six animals at a specified time prior to intravenous challenge with ovalbumin.
% Inhibition of P.C.A = 100 (1 - a/b)
For those compounds having insoluble sodium salts, the salts were isolated by reaction of the free nitro compound with 2.5N sodium hydroxide and the filtered sodium salt washed free of alkali with water. The dried salts were then administered as a suspension in 1% methyl cellulose.

[1] = 0 h, time 0 mins. prior to i.v. ovalbumin challenge
[2] = 0.5 h, time 30 mins. prior to i.v. ovalbumin challenge
[3] = 1 h, time 60 mins. prior to i.v. ovalbumin challenge

O=c1[nH]c2ccccc2c(O)c1[N+](=O)[O-] [Example 1, 4-Hydroxy-3-nitrocarbostyril]
inhibition at 25 mg/kg [1]: 9%
inhibition at 100 mg/kg [1]: 33%
inhibition at 25 mg/kg [2]: 19%
inhibition at 100 mg/kg [2]: 40%

O=c1[nH]c2ccc([N+](=O)[O-])cc2c(O)c1[N+](=O)[O-] [Example 2, 3,6-Dinitro-4-hydroxycarbostyril]
inhibition at 25 mg/kg [1]: 4%
inhibition at 100 mg/kg [1]: -14%
inhibition at 25 mg/kg [3]: 31%
inhibition at 100 mg/kg [3]: 23%

O=c1[nH]c2ccc(Cl)cc2c(O)c1[N+](=O)[O-] [Example 3, 6-Chloro-4-hydroxy-3-nitrocarbostyril]
inhibition at 25 mg/kg [1]: -39%
inhibition at 100 mg/kg [1]: -30%
inhibition at 25 mg/kg [3]: 33%
inhibition at 100 mg/kg [3]: 54%

Cc1ccc2[nH]c(=O)c([N+](=O)[O-])c(O)c2c1 [Example 4, 4-Hydroxy-6-methyl-3-nitrocarbostyril]
inhibition at 25 mg/kg [1]: 14%
inhibition at 100 mg/kg [1]: 30%
inhibition at 25 mg/kg [3]: 15%
inhibition at 100 mg/kg [3]: 23%

CCc1ccc2[nH]c(=O)c([N+](=O)[O-])c(O)c2c1 [Example 5, 6-Ethyl-4-hydroxy-3-nitro-carbostyril]
inhibition at 25 mg/kg [1]: 19%
inhibition at 100 mg/kg [1]: 26%
inhibition at 25 mg/kg [3]: 13%
inhibition at 100 mg/kg [3]: 33%

Cc1cccc2[nH]c(=O)c([N+](=O)[O-])c(O)c12 [Example 6 (a), 4-Hydroxy-5-methyl-3-nitrocarbostyril]
inhibition at 25 mg/kg [1]: 5%
inhibition at 100 mg/kg [1]: 7%
inhibition at 25 mg/kg [3]: 1%
inhibition at 100 mg/kg [3]: 51%

Cc1ccc2c(O)c([N+](=O)[O-])c(=O)[nH]c2c1 [Example 6 (b), 4-hydroxy-7-methyl-3-nitrocarbostyril]
inhibition at 25 mg/kg [1]: 12%
inhibition at 100 mg/kg [1]: 7%
inhibition at 25 mg/kg [3]: 1%
inhibition at 100 mg/kg [3]: 23%

Cc1cccc2c(O)c([N+](=O)[O-])c(=O)[nH]c12 [Example 7, 4-Hydroxy-8-methyl-3-nitrocarbostyril]
inhibition at 25 mg/kg [1]: 23%
inhibition at 100 mg/kg [1]: 71%
inhibition at 25 mg/kg [2]: 18%
inhibition at 100 mg/kg [2]: 36%

O=c1[nH]c2ccc(Br)cc2c(O)c1[N+](=O)[O-] [Example 8, 6-Bromo-4-hydroxy-3-nitrocarbostyril]
inhibition at 25 mg/kg [1]: 5%
inhibition at 100 mg/kg [1]: -11%
inhibition at 25 mg/kg [3]: 25%
inhibition at 100 mg/kg [3]: 19%

Cc1ccc(C)c2c(O)c([N+](=O)[O-])c(=O)[nH]c12 [Example 9, 5,8-Dimethyl-4-hydroxy-3-nitrocarbostyril]
inhibition at 25 mg/kg [1]: 7%
inhibition at 100 mg/kg [1]: 22%
inhibition at 25 mg/kg [2]: 9%
inhibition at 100 mg/kg [2]: 27%

Cc1cc(C)c2c(O)c([N+](=O)[O-])c(=O)[nH]c2c1 [Example 10, 5,7-Dimethyl-4-hydroxy-3-nitrocarbostyril]
inhibition at 25 mg/kg [1]: 0%
inhibition at 100 mg/kg [1]: 22%
inhibition at 25 mg/kg [3]: 35%
inhibition at 100 mg/kg [3]: 44%

Cc1cc(C)c2[nH]c(=O)c([N+](=O)[O-])c(O)c2c1 [Example 11, 6,8-Dimethyl-4-hydroxy-3-nitrocarbostyril]
inhibition at 25 mg/kg [1]: 11%
inhibition at 100 mg/kg [1]: 0%
inhibition at 25 mg/kg [3]: 52%
inhibition at 100 mg/kg [3]: 51%

Cc1ccc2c(O)c([N+](=O)[O-])c(=O)[nH]c2c1C [Example 12, 7,8-Dimethyl-4-hydroxy-3-nitrocarbostyril]
inhibition at 25 mg/kg [1]: 9%
inhibition at 100 mg/kg [1]: 50%
inhibition at 25 mg/kg [2]: 36%
inhibition at 100 mg/kg [2]: 47%

O=c1[nH]c2c(Br)cccc2c(O)c1[N+](=O)[O-] [Example 13, 8-Bromo-4-hydroxy-3-nitrocarbostyril]
inhibition at 25 mg/kg [1]: 36%
inhibition at 100 mg/kg [1]: 49%
inhibition at 25 mg/kg [3]: 32%
inhibition at 100 mg/kg [3]: 32%

O=c1[nH]c2c(Cl)cccc2c(O)c1[N+](=O)[O-] [Example 14, 8-Chloro-4-hydroxy-3-nitrocarbostyril]
inhibition at 25 mg/kg [1]: 18%
inhibition at 100 mg/kg [1]: 26%
inhibition at 25 mg/kg [3]: 42%
inhibition at 100 mg/kg [3]: 43%

Cc1cc2[nH]c(=O)c([N+](=O)[O-])c(O)c2cc1C [Example 15, 6,7-Dimethyl-4-hydroxy-3-nitrocarbostyril]
inhibition at 25 mg/kg [1]: 62%
inhibition at 100 mg/kg [1]: 88%
inhibition at 25 mg/kg [3]: 27%
inhibition at 100 mg/kg [3]: 54%

O=c1[nH]c2cc(Cl)ccc2c(O)c1[N+](=O)[O-] [Example 16, 7-Chloro-4-hydroxy-3-nitrocarbostyril]
inhibition at 25 mg/kg [1]: -3%
inhibition at 100 mg/kg [1]: 13%
inhibition at 25 mg/kg [2]: 9%
inhibition at 100 mg/kg [2]: 63%

CCc1cc2[nH]c(=O)c([N+](=O)[O-])c(O)c2cc1CC [Example 17, 6,7-Diethyl-4-hydroxy-3-nitrocarbostyril]
inhibition at 25 mg/kg [1]: 25%
inhibition at 100 mg/kg [1]: 32%
inhibition at 25 mg/kg [3]: 34%
inhibition at 100 mg/kg [3]: 42%

CCn1c(=O)c([N+](=O)[O-])c(O)c2ccccc21 [Example 30, 1-Ethyl-4-hydroxy-3-nitro carbostyril]
inhibition at 25 mg/kg [1]: 9%
inhibition at 100 mg/kg [1]: 20%
inhibition at 25 mg/kg [2]: 34%
inhibition at 100 mg/kg [2]: 41%

Cn1c(=O)c([N+](=O)[O-])c(O)c2ccccc21 [Example 31, 4-Hydroxy-1-methyl-3-nitro carbostyril]
inhibition at 25 mg/kg [1]: 21%
inhibition at 100 mg/kg [1]: 35%
inhibition at 25 mg/kg [2]: 26%
inhibition at 100 mg/kg [2]: 36%

Cc1ccc2c(c1)c(O)c([N+](=O)[O-])c(=O)n2C [Example 32, 1,6-Dimethyl-4-hydroxy-3-nitro carbostyril]
inhibition at 25 mg/kg [1]: -12%
inhibition at 100 mg/kg [1]: 16%
inhibition at 25 mg/kg [2]: 55%
inhibition at 100 mg/kg [2]: 26%

CCn1c(=O)c([N+](=O)[O-])c(O)c2cc(C)ccc21 [Example 33, 1-Ethyl-4-hydroxy-6-methyl-3-nitro carbostyril]
inhibition at 25 mg/kg [1]: -12%
inhibition at 100 mg/kg [1]: -1%
inhibition at 25 mg/kg [3]: -5%
inhibition at 100 mg/kg [3]: 16%

Cn1c(=O)c([N+](=O)[O-])c(O)c2cc(Cl)ccc21 [Example 34, 6-Chloro-4-hydroxy-1-methyl-3-nitro carbostyril]
inhibition at 25 mg/kg [1]: -5%
inhibition at 100 mg/kg [1]: 43%
inhibition at 25 mg/kg [3]: 8%
inhibition at 100 mg/kg [3]: 61%

CCn1c(=O)c([N+](=O)[O-])c(O)c2cc(Cl)ccc21 [Example 35, 6-Chloro-1-ethyl-4-hydroxy-3-nitro carbostyril]
inhibition at 25 mg/kg [1]: -8%
inhibition at 100 mg/kg [1]: 5%
inhibition at 25 mg/kg [3]: 11%
inhibition at 100 mg/kg [3]: 88%

Cn1c(=O)c([N+](=O)[O-])c(O)c2ccc(Cl)cc21 [Example 36, 7-Chloro-4-hydroxy-1-methyl-3-nitro carbostyril]
inhibition at 25 mg/kg [1]: -4%
inhibition at 100 mg/kg [1]: 34%
inhibition at 25 mg/kg [3]: -2%
inhibition at 100 mg/kg [3]: 50%

O=c1c([N+](=O)[O-])c(O)c2ccccc2n1-c1ccccc1 [Example 37, 4-Hydroxy-3-nitro-1-phenylcarbostyril]
inhibition at 25 mg/kg [1]: -2%
inhibition at 100 mg/kg [1]: 13%
inhibition at 25 mg/kg [2]: 1%
inhibition at 100 mg/kg [2]: 42%

Cc1cc2c(O)c([N+](=O)[O-])c(=O)n(C)c2cc1C [Example 38, 4-Hydroxy-3-nitro-1,6,7-trimethylcarbostyril]
inhibition at 25 mg/kg [1]: 13%
inhibition at 100 mg/kg [1]: 53%
inhibition at 25 mg/kg [2]: 14%
inhibition at 100 mg/kg [2]: 47%
